Literature values in patent US9808468B2, “Formulation of meloxicam” (ICEUTICA PTY LTD., priority 2014, dated 2017).

## Cc1cnc(NC(=O)C2=C(O)c3ccccc3S(=O)(=O)N2C)s1 [Meloxicam, 4-hydroxy-2-methyl-N-(5-methyl-2-thiazolyl)-2H-1,2-benzothiazine-3-carboxamide-1,1-dioxide]
  solubility in water: practically insoluble
